{"source": "patent US10385061B2", "about": "“Medicarpin, its derivatives, manufacturing method thereof” (PhytoHealth Corporation, priority 2016, dated 2019)", "key": {"[1]": {"test_system": "erythroid progenitor cells", "experiment": "Hemoglobin colorimetric assay of bone marrow cells (erythroid progenitor differentiation)", "assay_type": "cell-based, mouse", "settings": "low concentration (0.1 to 10 μg/mL), 96 hours, A610", "protocol": "C57BL/6J male mice (6 weeks old) were used in this Example to collect bone marrow cells. The hind legs were of mice were obtained to remove excess flesh from the leg bone and cut off the ends of the bones. The bones were flushed with α-MEM medium using 23-gauge needle to elute bone marrow cells, and then filtrated by No. 53 nylon mesh filter to obtain the bone marrow cells solution.\n96-well plates (U-bottom shape) were centrifuged at 1200 rpm (Kubota 6800) at 25° C. for 5 minutes. After centrifugation, the supernatant was removed and the bone marrow cells were mixed equally with 50 μL lysis buffer (0.01% NP-40) for 10 minutes. Then, 150 μL of 500 μM DAF (2,7-Diaminofluorene, Sigma-Aldrich) solution and 6 μL of 30% H2O2 were added and treated with the bone marrow cells for 5 minutes, and absorbance at 610 nm (A610) was determined. Student's t-test were used to compare data."}, "[2]": {"test_system": "cisplatin-induced nephropathic mice", "experiment": "Cisplatin-induced nephropathic mice model", "assay_type": "in vivo", "procedure": "C57BL/6J male mice (8 to 10 weeks old) were injected i.p. (Intraperitoneal) with three doses of cisplatin (CDDP) (Sigma-Aldrich), following the scheme of 7, 6 and 7 mg/kg body weight, at 1, 5, 10 day, and the normal group (n=6) was injected with saline. On day 12, serum samples were collected and assayed for blood urea nitrogen content (BUN). Mice with BUN values greater than 100 mg/100 mL were chosen for the experiment. […] The mice were (BUN=80-300 mg/dL) subsequently divided randomly into four cohorts comprising the control and three medicarpin-treated groups, medicarpin 10, 30, 90 mg/kg/day (CDDP+Med 10, CDDP+Med 30, CDDP+Med 90) (n=6 for each group) for an additional 2 weeks. Blood samples from all the mice were collected on day 12. The red blood cell (RBC) numbers were determined from the complete blood cell count using a Sysmex Kx-21 haematology analyser (Sysmex America Inc., Mundelein, Ill., USA), and the serum BUN levels were determined through the urease GLDH method using a commercial kit (DiaSys Diagnostic System GmbH, Frankfurt, Germany). The administration and blood collection schedules were carried out according to the FIG. 4. […] However, the number of RBC in control group without medicarpin treatment was still low. […] The number of WBCs was recovered in the mice after 2 week of medicarpin treatment. […] Similarly, the number of platelet (PLT) also was decreased by cisplatin. […] (FIG. 5D).\nOne month after treatment of medicarpin, the expression of EPO was increased in liver (FIG. 7A) and kidney (FIG. 7B) of mice."}, "doxorubicin-induced mice": {"test_system": "doxorubicin-induced mice", "experiment": "Treadmill endurance assessment under normoxic or hypoxic conditions", "assay_type": "in vivo", "settings": "3 weeks administration, normoxic and hypoxic (8% O2) conditions, dose-dependent", "procedure": "Before being divided into treatment groups, 8 to 10 week-old C57B1/6J male mice were trained on a treadmill for a maximum of 10 min for each of three consecutive training sessions per day for 3 days. […] On the testing day, each mouse was subjected to three trials on the treadmill at under a normoxic or hypoxic (8% O2) atmosphere. The endurance performance was measured over time until the mice suffered from electric shock over 35 times/min (electric shock system is on the end of the treadmill). The maximum trial length was 60 min and there was a 30-min rest period between each trial. (Table 2)"}, "[3]": {"test_system": "dox-induced cardiomyopathic mice", "settings": "for EF (Ejection fraction) / FS (Fractional shortening) / IVS; d / IVS; s / LVID; d / LVID; s / LVPW; d / LVPW; s: week 3, mean±SEM", "protocol": "C57BL/6J male mice (6 to 8 weeks old) were injected intraperitoneally with triple dose of 5, 5, or 8 mg/kg doxorubicin-HCl (Sigma-Aldrich), respectively. In control group, the mice (n=6) were injected intraperitoneally with saline. 1 week after injection, the degree of heart failure was determined by the increase of S-T segment in electrocardiogram, and then the mice were randomly reclassified into the control group (Dox/Ctrl, n=9) and experimental group (Dox+Med) (FIG. 9). In the experimental group, the mice were fed a diet containing 10, 30, or 90 mg/kg/day medicarpin, respectively. Each experiment group consisted of 7 mice. After feedings, the mice were subjected to the rotarod endurance test, echocardiography and electrocardiogram.\nThe mice from all treatment groups were anaesthetized with isoflurane (0.75-1.5% inhalation); and echocardiographic measurements were taken in M-mode in triplicate for each mouse using an ATL HDI 5000 ultrasound system (Philips Medical Systems, ATL Ultrasound, Bothell, Wash., USA)."}}, "note": "Like-named read-outs stand apart in the source and are kept apart here."}
{"substance": "(+)-Medicarpin", "values": [{"measurement": "differentiation of erythroid progenitor cells", "setting": "[1]", "value": "enhanced"}, {"measurement": "BUN levels", "setting": "[2]; 30 and 90 mg/kg treatment groups", "value": "significantly recovered"}, {"measurement": "recovery of anaemia (RBC number)", "setting": "[2]; 30 and 90 mg/kg, day 33", "value": "almost complete recovery"}, {"measurement": "white blood cell (WBC) number", "setting": "[2]; 30 and 90 mg/kg, week 3 to 4", "value": "significant recovery"}, {"measurement": "renal function", "setting": "[2]; 30 or 90 mg/kg", "value": "accelerated the recovery"}, {"measurement": "amount of hemoglobin and number of functional RBC", "setting": "[2]; high-middle dose", "value": "increased"}, {"measurement": "renal function", "setting": "[2]; low-dose 10 mg/kg", "value": "could not improve"}, {"measurement": "HGF expression in liver", "setting": "[2]; one month after treatment", "value": "increase"}, {"measurement": "expression of EPO in liver and kidney", "setting": "[2]; one month after treatment", "value": "increased"}, {"measurement": "number of platelet (PLT)", "setting": "[2]; vs CDDP/Ctrl group after its recovery from cisplatin", "value": "no significant difference"}, {"measurement": "endurance performance to exhaustion", "setting": "doxorubicin-induced mice", "value": "enhanced"}, {"measurement": "prolonged S-T interval", "setting": "[3]; 90 mg/kg/day, one week after treatment, electrocardiogram", "value": "improved"}, {"measurement": "ejection fractions and fractional shortening", "setting": "[3]; 30 and 90 mg/kg, vs doxorubicin alone", "value": "significantly greater"}, {"measurement": "EF (Ejection fraction)", "setting": "[3]; Dox + Med10 (10 mg/kg/day)", "value": "58.44 ± 2.55", "unit": "%"}, {"measurement": "FS (Fractional shortening)", "setting": "[3]; Dox + Med10 (10 mg/kg/day)", "value": "30.32 ± 1.56", "unit": "%"}, {"measurement": "IVS; d", "setting": "[3]; Dox + Med10 (10 mg/kg/day)", "value": "0.85 ± 0.03", "unit": "mm"}, {"measurement": "IVS; s", "setting": "[3]; Dox + Med10 (10 mg/kg/day)", "value": "1.20 ± 0.03", "unit": "mm"}, {"measurement": "LVID; d", "setting": "[3]; Dox + Med10 (10 mg/kg/day)", "value": "3.70 ± 0.34"}, {"measurement": "LVID; s", "setting": "[3]; Dox + Med10 (10 mg/kg/day)", "value": "2.58 ± 0.27"}, {"measurement": "LVPW; d", "setting": "[3]; Dox + Med10 (10 mg/kg/day)", "value": "0.69 ± 0.10"}, {"measurement": "LVPW; s", "setting": "[3]; Dox + Med10 (10 mg/kg/day)", "value": "1.00 ± 0.07"}, {"measurement": "EF (Ejection fraction)", "setting": "[3]; Dox + Med30 (30 mg/kg/day)", "value": "75.07 ± 2.29", "unit": "%"}, {"measurement": "FS (Fractional shortening)", "setting": "[3]; Dox + Med30 (30 mg/kg/day)", "value": "43.04 ± 2.03", "unit": "%"}, {"measurement": "IVS; d", "setting": "[3]; Dox + Med30 (30 mg/kg/day)", "value": "0.81 ± 0.04", "unit": "mm"}, {"measurement": "IVS; s", "setting": "[3]; Dox + Med30 (30 mg/kg/day)", "value": "1.19 ± 0.02", "unit": "mm"}, {"measurement": "LVID; d", "setting": "[3]; Dox + Med30 (30 mg/kg/day)", "value": "3.33 ± 0.07"}, {"measurement": "LVID; s", "setting": "[3]; Dox + Med30 (30 mg/kg/day)", "value": "1.89 ± 0.06"}, {"measurement": "LVPW; d", "setting": "[3]; Dox + Med30 (30 mg/kg/day)", "value": "0.74 ± 0.04"}, {"measurement": "LVPW; s", "setting": "[3]; Dox + Med30 (30 mg/kg/day)", "value": "1.26 ± 0.07"}, {"measurement": "EF (Ejection fraction)", "setting": "[3]; Dox + Med90 (90 mg/kg/day)", "value": "72.92 ± 2.72", "unit": "%"}, {"measurement": "FS (Fractional shortening)", "setting": "[3]; Dox + Med90 (90 mg/kg/day)", "value": "41.19 ± 2.07", "unit": "%"}, {"measurement": "IVS; d", "setting": "[3]; Dox + Med90 (90 mg/kg/day)", "value": "0.86 ± 0.05", "unit": "mm"}, {"measurement": "IVS; s", "setting": "[3]; Dox + Med90 (90 mg/kg/day)", "value": "1.29 ± 0.09", "unit": "mm"}, {"measurement": "LVID; d", "setting": "[3]; Dox + Med90 (90 mg/kg/day)", "value": "3.30 ± 0.11"}, {"measurement": "LVID; s", "setting": "[3]; Dox + Med90 (90 mg/kg/day)", "value": "1.94 ± 0.12"}, {"measurement": "LVPW; d", "setting": "[3]; Dox + Med90 (90 mg/kg/day)", "value": "0.77 ± 0.06"}, {"measurement": "LVPW; s", "setting": "[3]; Dox + Med90 (90 mg/kg/day)", "value": "1.15 ± 0.08"}, {"measurement": "expression of EPO in kidney and heart", "setting": "[3]; doxorubicin-induced mice", "value": "recovered and increased"}, {"measurement": "cardiomyocytes atrophy or hypertrophy, cytoplasmic vacuolization, myofibrillar loss, myocardial fibrosis (histology)", "setting": "[3]; middle-high dosed treatment", "value": "significantly ameliorated"}, {"measurement": "left ventricular posterior wall thickness (LVPWs)", "setting": "[3]; middle-high doses", "value": "increased"}, {"measurement": "influence to renal function", "setting": "[3]; mouse, in vivo", "value": "no influence"}, {"measurement": "heart rate (beats per second)", "setting": "[3]; three weeks after treatment", "value": "recovered to normal"}]}
